Measured values reported in patent US20250235543A1, “MODIFIED PROTEINS AND PROTEIN DEGRADERS” (Cullgen (Shanghai), Inc., priority 2021, published 2025).

What follows are compounds tested on P300/CBP (assay: P300/CBP cellular protein degradation).
Type: cell-based
Protocol: Cultured cells were washed with cold PBS once and lysed in cold RIPA buffer supplemented with protease inhibitors and phosphatase inhibitors (Beyotime Biotechnology). The solutions were then incubated at 4° C. for 30 min with gentle agitation to fully lysed cells. Cell lysates were centrifuged at 13,000 rpm for 10 min at 4° C. and pellets were discarded. Total protein concentrations in the lysates were determined following BCA assays (Beyotime Biotechnology). Cell lysates were mixed with Laemmli loading buffer and heated at 99° C. for 5 min. Proteins were resolved on SDS-PAGE and visualized using Western ECL Substrate kits on a ChemiDoc MP Imaging system (Bio-Rad). Protein bands were quantitated using the Image Lab software provided by Bio-Rad.

SMILES	P300/CBP Degradation (100 nM)
CC(=O)N1CCc2c(c(N3CCCc4cc(-c5cnn(C)c5)c(C(F)F)cc43)nn2C2CCN(C(=O)CCCCCCCCCCCC(=O)Nc3ccccc3C(=O)Nc3nc(C)c([N+](=O)[O-])s3)CC2)C1 [CPD-208, 2-(13-(4-(5-Acetyl-3-(7-(difluoromethyl)-6-(1-methyl-1H-pyrazol-4-yl)-3,4-dihydroquinolin-1(2H)-yl)-4,5,6,7-tetrahydro-1H-pyrazolo[4,3-c]pyridin-1-yl)piperidin-1-yl)-13-oxotridecanamido)-N-(4-methyl-5-nitrothiazol-2-yl)benzamide]	D (degradation activity < 30%)
CC(=O)N1CCc2c(c(N3CCCc4cc(-c5cnn(C)c5)c(C(F)F)cc43)nn2C2CCN(CC(=O)NCCCCCNc3ccc(C(=O)Nc4ncc(C)s4)c(C)c3)CC2)C1 [CPD-192, 4-((5-(2-(4-(5-Acetyl-3-(7-(difluoromethyl)-6-(1-methyl-1H-pyrazol-4-yl)-3,4-dihydroquinolin-1(2H)-yl)-4,5,6,7-tetrahydro-1H-pyrazolo[4,3-c]pyridin-1-yl)piperidin-1-yl)acetamido)pentyl)amino)-2-methyl-N-(5-methylthiazol-2-yl)benzamide]	D (degradation activity < 30%)
CC(=O)N1CCc2c(c(N3CCCc4cc(-c5cnn(C)c5)c(C(F)F)cc43)nn2C2CCN(CC(=O)NCCOCCNc3ccc(C(=O)Nc4ncc(C)s4)c(C)c3)CC2)C1 [CPD-197, 4-((2-(2-(2-(4-(5-Acetyl-3-(7-(difluoromethyl)-6-(1-methyl-1H-pyrazol-4-yl)-3,4-dihydroquinolin-1(2H)-yl)-4,5,6,7-tetrahydro-1H-pyrazolo[4,3-c]pyridin-1-yl)piperidin-1-yl)acetamido)ethoxy)ethyl)amino)-2-methyl-N-(5-methylthiazol-2-yl)benzamide]	D (degradation activity < 30%)
CC(=O)N1CCc2c(c(N3CCCc4cc(-c5cnn(C)c5)c(C(F)F)cc43)nn2C2CCN(CC(=O)NCCC(=O)Nc3ccccc3C(=O)Nc3nc(C)c([N+](=O)[O-])s3)CC2)C1 [CPD-210, 2-(3-(2-(4-(5-Acetyl-3-(7-(difluoromethyl)-6-(1-methyl-1H-pyrazol-4-yl)-3,4-dihydroquinolin-1(2H)-yl)-4,5,6,7-tetrahydro-1H-pyrazolo[4,3-c]pyridin-1-yl)piperidin-1-yl)acetamido)propanamido)-N-(4-methyl-5-nitrothiazol-2-yl)benzamide]	D (degradation activity < 30%)
CC(=O)N1CCc2c(c(N3CCCc4cc(-c5cnn(C)c5)c(C(F)F)cc43)nn2C2CCN(C(=O)CCCCCCCCC(=O)Nc3ccccc3C(=O)Nc3nc(C)c([N+](=O)[O-])s3)CC2)C1 [CPD-205, 2-(10-(4-(5-Acetyl-3-(7-(difluoromethyl)-6-(1-methyl-1H-pyrazol-4-yl)-3,4-dihydroquinolin-1(2H)-yl)-4,5,6,7-tetrahydro-1H-pyrazolo[4,3-c]pyridin-1-yl)piperidin-1-yl)-10-oxodecanamido)-N-(4-methyl-5-nitrothiazol-2-yl)benzamide]	D (degradation activity < 30%)
CC(=O)N1CCc2c(c(N3CCCc4cc(-c5cnn(C)c5)c(C(F)F)cc43)nn2C2CCN(CC(=O)NCCNc3ccc(C(=O)Nc4ncc(C)s4)c(C)c3)CC2)C1 [CPD-189, 4-((2-(2-(4-(5-Acetyl-3-(7-(difluoromethyl)-6-(1-methyl-1H-pyrazol-4-yl)-3,4-dihydroquinolin-1(2H)-yl)-4,5,6,7-tetrahydro-1H-pyrazolo[4,3-c]pyridin-1-yl)piperidin-1-yl)acetamido)ethyl)amino)-2-methyl-N-(5-methylthiazol-2-yl)benzamide]	D (degradation activity < 30%)
CC(=O)N1CCc2c(c(N3CCCc4cc(-c5cnn(C)c5)c(C(F)F)cc43)nn2C2CCN(CC(=O)NCCCCCCNc3ccc(C(=O)Nc4ncc(C)s4)c(C)c3)CC2)C1 [CPD-193, 4-((6-(2-(4-(A-Acetyl-3-(7-(difluoromethyl)-6-(1-methyl-1H-pyrazol-4-yl)-3,4-dihydroquinolin-1(2H)-yl)-4,5,6,7-tetrahydro-1H-pyrazolo[4,3-c]pyridin-1-yl)piperidin-1-yl)acetamido)hexyl)amino)-2-methyl-N-(5-methylthiazol-2-yl)benzamide]	D (degradation activity < 30%)
CC(=O)N1CCc2c(c(N3CCCc4cc(-c5cnn(C)c5)c(C(F)F)cc43)nn2C2CCN(CC(=O)NCCCCCCCCC(=O)Nc3ccccc3C(=O)Nc3nc(C)c([N+](=O)[O-])s3)CC2)C1 [CPD-216, 2-(9-(2-(4-(5-Acetyl-3-(7-(difluoromethyl)-6-(1-methyl-1H-pyrazol-4-yl)-3,4-dihydroquinolin-1(2H)-yl)-4,5,6,7-tetrahydro-1H-pyrazolo[4,3-c]pyridin-1-yl)piperidin-1-yl)acetamido)nonanamido)-N-(4-methyl-5-nitrothiazol-2-yl)benzamide]	D (degradation activity < 30%)
CC(=O)N1CCc2c(c(N3CCCc4cc(-c5cnn(C)c5)c(C(F)F)cc43)nn2C2CCN(C(=O)CCCCCCCCCC(=O)Nc3ccccc3C(=O)Nc3nc(C)c([N+](=O)[O-])s3)CC2)C1 [CPD-206, 2-(11-(4-(5-Acetyl-3-(7-(difluoromethyl)-6-(1-methyl-1H-pyrazol-4-yl)-3,4-dihydroquinolin-1(2H)-yl)-4,5,6,7-tetrahydro-1H-pyrazolo[4,3-c]pyridin-1-yl)piperidin-1-yl)-11-oxoundecanamido)-N-(4-methyl-5-nitrothiazol-2-yl)benzamide]	D (degradation activity < 30%)
CC(=O)N1CCc2c(c(N3CCCc4cc(-c5cnn(C)c5)c(C(F)F)cc43)nn2C2CCN(C(=O)CCCCCCCC(=O)Nc3ccccc3C(=O)Nc3nc(C)c([N+](=O)[O-])s3)CC2)C1 [CPD-204, 2-(9-(4-(5-Acetyl-3-(7-(difluoromethyl)-6-(1-methyl-1H-pyrazol-4-yl)-3,4-dihydroquinolin-1(2H)-yl)-4,5,6,7-tetrahydro-1H-pyrazolo[4,3-c]pyridin-1-yl)piperidin-1-yl)-9-oxononanamido)-N-(4-methyl-5-nitrothiazol-2-yl)benzamide]	D (degradation activity < 30%)
CC(=O)N1CCc2c(c(N3CCCc4cc(-c5cnn(C)c5)c(C(F)F)cc43)nn2C2CCN(CC(=O)NCCCCCCC(=O)Nc3ccccc3C(=O)Nc3nc(C)c([N+](=O)[O-])s3)CC2)C1 [CPD-214, 2-(7-(2-(4-(5-Acetyl-3-(7-(difluoromethyl)-6-(1-methyl-1H-pyrazol-4-yl)-3,4-dihydroquinolin-1(2H)-yl)-4,5,6,7-tetrahydro-1H-pyrazolo[4,3-c]pyridin-1-yl)piperidin-1-yl)acetamido)heptanamido)-N-(4-methyl-5-nitrothiazol-2-yl)benzamide]	D (degradation activity < 30%)
CC(=O)N1CCc2c(c(N3CCCc4cc(-c5cnn(C)c5)c(C(F)F)cc43)nn2C2CCN(CC(=O)NCCCCC(=O)Nc3ccccc3C(=O)Nc3nc(C)c([N+](=O)[O-])s3)CC2)C1 [CPD-212, 2-(5-(2-(4-(5-Acetyl-3-(7-(difluoromethyl)-6-(1-methyl-1H-pyrazol-4-yl)-3,4-dihydroquinolin-1(2H)-yl)-4,5,6,7-tetrahydro-1H-pyrazolo[4,3-c]pyridin-1-yl)piperidin-1-yl)acetamido)pentanamido)-N-(4-methyl-5-nitrothiazol-2-yl)benzamide]	D (degradation activity < 30%)
CC(=O)N1CCc2c(c(N3CCCc4cc(-c5cnn(C)c5)c(C(F)F)cc43)nn2C2CCN(CC(=O)NCCCCCCCNc3ccc(C(=O)Nc4ncc(C)s4)c(C)c3)CC2)C1 [CPD-194, 4-((7-(2-(4-(5-Acetyl-3-(7-(difluoromethyl)-6-(1-methyl-1H-pyrazol-4-yl)-3,4-dihydroquinolin-1(2H)-yl)-4,5,6,7-tetrahydro-1H-pyrazolo[4,3-c]pyridin-1-yl)piperidin-1-yl)acetamido)heptyl)amino)-2-methyl-N-(5-methylthiazol-2-yl)benzamide]	D (degradation activity < 30%)
CC(=O)N1CCc2c(c(N3CCCc4cc(-c5cnn(C)c5)c(C(F)F)cc43)nn2C2CCN(CC(=O)NCCCCCCCC(=O)Nc3ccccc3C(=O)Nc3nc(C)c([N+](=O)[O-])s3)CC2)C1 [CPD-215, 2-(8-(2-(4-(5-Acetyl-3-(7-(difluoromethyl)-6-(1-methyl-1H-pyrazol-4-yl)-3,4-dihydroquinolin-1(2H)-yl)-4,5,6,7-tetrahydro-1H-pyrazolo[4,3-c]pyridin-1-yl)piperidin-1-yl)acetamido)octanamido)-N-(4-methyl-5-nitrothiazol-2-yl)benzamide]	D (degradation activity < 30%)
CC(=O)N1CCc2c(c(N3CCCc4cc(-c5cnn(C)c5)c(C(F)F)cc43)nn2C2CCN(CC(=O)NCCCC(=O)Nc3ccccc3C(=O)Nc3nc(C)c([N+](=O)[O-])s3)CC2)C1 [CPD-211, 2-(4-(2-(4-(5-Acetyl-3-(7-(difluoromethyl)-6-(1-methyl-1H-pyrazol-4-yl)-3,4-dihydroquinolin-1(2H)-yl)-4,5,6,7-tetrahydro-1H-pyrazolo[4,3-c]pyridin-1-yl)piperidin-1-yl)acetamido)butanamido)-N-(4-methyl-5-nitrothiazol-2-yl)benzamide]	D (degradation activity < 30%)
CC(=O)N1CCc2c(c(N3CCCc4cc(-c5cnn(C)c5)c(C(F)F)cc43)nn2C2CCN(C(=O)CCCCCC(=O)Nc3ccccc3C(=O)Nc3nc(C)c([N+](=O)[O-])s3)CC2)C1 [CPD-202, 2-(7-(4-(5-Acetyl-3-(7-(difluoromethyl)-6-(1-methyl-1H-pyrazol-4-yl)-3,4-dihydroquinolin-1(2H)-yl)-4,5,6,7-tetrahydro-1H-pyrazolo[4,3-c]pyridin-1-yl)piperidin-1-yl)-7-oxoheptanamido)-N-(4-methyl-5-nitrothiazol-2-yl)benzamide]	D (degradation activity < 30%)
